# Test results as given in EP4417602A1, “SUBSTITUTED PYRAZOLE CARBOXAMIDES, SALTS THEREOF AND THEIR USE AS HERBICIDALLY ACTIVE SUBSTANCES” (Bayer AG, priority 2023, dated 2024).
# Key:
# MATIN [1] = assay: A. Herbicidal pre-emergence action on harmful plants (Tables A); type: in vivo, Matricaria inodora; details: visual grading after ca. 3 weeks vs untreated controls, 100% = plants have died off, 0% = as control plants
# Procedure, shortened: (§1)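 Greenhouse pre-emergence test: compound applied to the soil surface at 1280 g/ha or below, and herbicidal effect rated visually at ca. 3 weeks on a 0–100% scale against untreated plants.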
# POAAN = assay: as above; type: in vivo, Poa annua
# Procedure, shortened: as §1
# ECHCG = assay: B. Herbicidal post-emergence action on harmful plants (Tables B); type: in vivo, Echinochloa crus-galli
# Procedure, shortened: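 Activity was scored visually as % damage (100% = dead, 0% = like untreated) about 3 weeks after treatment. Plants at the one-leaf stage, 2-3 weeks old, were sprayed with WP/EC formulations plus 0.5% additive (600 L/ha water, up to 1280 g/ha). Plants were grown in sandy loam in a greenhouse.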
# LOLRI = assay: C. Herbicidal pre-emergence action, weed and crop plants (Tables C); type: in vivo, Lolium rigidum; details: application rate 320 g/ha; Table C7a
# Description: (§2) Seeds of mono- and dicotyledonous weed plants and crop plants were sown, in plastic or organic planting pots, in sandy loam and covered with soil. The compounds according to the invention, formulated in the form of wettable powders (WP) or as emulsifiable concentrates (EC), were applied to the surface of the covering soil as aqueous suspension or emulsion, with the addition of 0.5% of an additive, at an application rate of 6001 of water/ha (converted). Following treatment, the pots were placed in a greenhouse and kept under optimum growth conditions for the test plants. The visual grading of the damage to the test plants was carried out after ca. 3 weeks in comparison to untreated controls (herbicidal effect in percent (%): 100% effect = plants have died off, 0% effect = as control plants). Tables C1 to C12 below show the effects of selected compounds of the general formula (I) according to table 1 on various harmful plants and an application rate corresponding to 320 g/ha or below obtained by the experimental procedure mentioned above. Table C1: pre-emergence activity at 320g/ha against KCHSC in %
# MATIN [2] = assay: as above; type: in vivo, Matricaria inodora; details: application rate 320 g/ha; Table C8
# Description: as §2
# SETVI = assay: as above; type: in vivo, Setaria viridis; details: application rate 320 g/ha; Table C10
# Description: as §2
# ZEAMX = assay: F. Post-emergence effects on crop plants (Tables F); type: in vivo, Zea mays; details: crop plant
# Procedure, shortened: (§3)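 Plants were grown in sandy loam in a greenhouse and sprayed post-emergence at the single-leaf stage, 2–3 weeks after sowing. Visual damage was scored after ca. 3 weeks against untreated controls (0% = as control, 100% = dead).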
# GLXMA [3] = assay: as above; type: in vivo, Glycine max; details: crop plant
# Procedure, shortened: as §3
# BRSNW = assay: as above; type: in vivo, Brassica napus; details: crop plant
# Procedure, shortened: as §3
# TRZAS = assay: as above; type: in vivo, Triticum aestivum; details: crop plant
# Procedure, shortened: as §3
# GLXMA [4] = assay: D. Pre-emergence effects on crop plants (Tables D); type: in vivo, Glycine max; details: crop plant
# Procedure, shortened: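 Pre-emergence soil-surface treatment at 320 g/ha or lower, using wettable-powder or emulsifiable-concentrate formulations in water plus 0.5% additive, over freshly sown seeds in covered sandy loam. Damage was rated visually as percent versus untreated pots (100% = dead plants) after about 3 weeks of greenhouse growth.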
# [5] = application rate 80 g/ha, Table A7c
# [6] = application rate 320 g/ha, Table A7b
# [7] = application rate 1280 g/ha, visual grading after ca. 3 weeks vs untreated controls, 100% = plants have died off, 0% = as control plants
# [8] = application rate 1280 g/ha, Table B2a
# [9] = application rate 80 g/ha, Table D4b
# [10] = application rate 320 g/ha, Table D4a
# [11] = application rate 320 g/ha, Table B2b
SMILES,pre-emergence activity against MATIN (MATIN [1]; application rate 320 g/ha) [%],pre-emergence activity against MATIN (MATIN [1]; application rate 1280 g/ha) [%],pre-emergence activity against POAAN (POAAN; [5]) [%],pre-emergence activity against POAAN (POAAN; [6]) [%],pre-emergence activity against POAAN (POAAN; [7]) [%],post-emergence activity against ECHCG (ECHCG; [8]) [%],pre-emergence activity against LOLRI (LOLRI) [%],pre-emergence activity against MATIN (MATIN [2]) [%],pre-emergence activity against SETVI (SETVI) [%],post-emergence activity against ZEAMX in % (ZEAMX; application rate 80 g/ha) [%],post-emergence activity against ZEAMX in % (ZEAMX; application rate 320 g/ha) [%],post-emergence activity against GLXMA in % (GLXMA [3]; application rate 80 g/ha) [%],post-emergence activity against BRSNW in % (BRSNW; application rate 80 g/ha) [%],post-emergence activity against TRZAS in % (TRZAS; application rate 80 g/ha) [%],post-emergence activity against TRZAS in % (TRZAS; application rate 320 g/ha) [%],post-emergence activity against BRSNW in % (BRSNW; application rate 320 g/ha) [%],pre-emergence activity against GLXMA (GLXMA [4]; [9]) [%],post-emergence activity against GLXMA in % (GLXMA [3]; application rate 320 g/ha) [%],pre-emergence activity against GLXMA (GLXMA [4]; [10]) [%],post-emergence activity against ECHCG (ECHCG; [11]) [%]
COCc1nn(C)cc1C(=O)N1CCCC1Cc1ccccc1F (racemic) [Example I-002],90,90,100,100,100,90,90,80,80,0,0,20,10,,,,,,,
Cn1cc(C(=O)N2CCCC2Cc2ccccc2F)c(COc2ccccc2)n1 (racemic) [Example I-006],,90,100,100,100,100,,,,10,20,0,,20,20,10,,,,
Cn1cc(C(=O)N2CCCC2Cc2ccc(F)cc2F)c(COc2ccccc2)n1 (racemic) [Example I-008],,90,100,100,100,,,,90,0,0,,,20,20,10,20,0,,
COCc1nn2c(c1C(=O)N1CCCC1Cc1ccccc1F)CCC2 (racemic) [Example I-022],,90,90,100,100,,100,,,0,0,,,0,0,0,0,0,0,
C=C(c1ccccc1F)C1CCCN1C(=O)c1cn(C)nc1COC (racemic) [Example I-023],90,90,100,100,100,90,100,80,90,0,20,,,,,0,0,,0,
COCc1nn(C(=O)OC(C)(C)C)cc1C(=O)N1CCCC1Cc1ccccc1F (racemic) [Example I-040],,90,,100,100,90,100,80,80,0,0,0,,,,0,0,,,
CNC(=O)n1cc(C(=O)N2CCCC2Cc2ccccc2F)c(COC)n1 (racemic) [Example I-051],,90,90,100,100,90,90,,80,20,,,,,,20,0,10,,
COCc1c(C(=O)N2CCCC2Cc2ccccc2Cl)cnn1C (racemic) [Example I-170],,90,100,100,100,90,90,80,,0,,10,,20,,0,,,0,90
"COCc1nn(C)cc1C(=O)N1CCCC1Cc1ccccc1F (single isomer, unassigned) [Example I-003]",90,90,100,100,100,90,90,80,80,,,,,,,0,,10,,90
"COCc1nn(C)cc1C(=O)N1CCCC1C(O)c1ccccc1F (single isomer, unassigned) [Example I-053]",,90,,90,100,90,90,80,90,0,,,,10,20,20,0,20,10,
"COCc1c(C(=O)N2CCCC2Cc2ccccc2F)cnn1C (single isomer, unassigned) [Example I-157]",,90,100,100,100,,90,,,0,0,,,0,20,0,,0,0,
